Paper PMC12514245, “Impaired migration and lung invasion of human melanoma by a novel small molecule targeting the transmembrane domain of death receptor p75^NTR” (EMBO Molecular Medicine, 2025)
“And” between values parts separate entries of the source, which are not always exact repeats. Identical values can stand only once.

Experiments:
AS19 E. coli = assay: Bacterial toxicity (OD630) in the AraTM assay; type: cell-based; settings: compared with Div17E5
A875 NT cells [1] = assay: Wound healing cell motility assay, A875 NT; type: cell-based, human; settings: for wound healing assay, comparison of Div17E5, MS_18 and MS_63: 10 µM; for Wound area (Fold), Mean / Wound area (Fold), individual replicates: 10uM
Method: For wound healing assay, cells were grown until confluency and subjected to a wound across the cell mono-layer. Cells were then incubated with serum-free media either with DMSO or a small molecule (with or without 5 µM Q_VD_poH) and imaged at specific time-points. Cell migration is reflected as fold change in wound area over time.

[2] = molecular target: T1, fascin/p75^NTR interaction (Homo sapiens, UniProt P08138); assay: Co-immunoprecipitation of fascin with p75NTR in A875 cells; type: cell-based; settings: NGF, experiments 1-3
T1 construct: endogenous in cells; host or cells: A875-NT (and A875 sh-p75NTR knock-down control)
T1 sequence (P08138 29-427): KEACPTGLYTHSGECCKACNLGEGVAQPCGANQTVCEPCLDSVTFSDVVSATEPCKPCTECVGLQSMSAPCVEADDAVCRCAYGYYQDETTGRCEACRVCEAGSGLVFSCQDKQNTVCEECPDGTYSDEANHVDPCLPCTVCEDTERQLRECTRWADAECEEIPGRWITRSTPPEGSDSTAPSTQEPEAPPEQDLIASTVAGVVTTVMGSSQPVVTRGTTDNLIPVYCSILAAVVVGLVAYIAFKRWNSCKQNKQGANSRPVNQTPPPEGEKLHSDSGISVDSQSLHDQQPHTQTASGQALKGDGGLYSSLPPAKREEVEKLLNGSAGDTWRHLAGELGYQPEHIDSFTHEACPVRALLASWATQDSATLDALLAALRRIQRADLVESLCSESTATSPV
Method: For co-immunoprecipitation analysis of p75^NTR/fascin interactions, A875 sh-p75^NTR and A875-NT cells were plated in a 10 cm tissue culture dish at a confluency of 3 × 10^6 cells/dish in normal growth media. Twenty-four hours after plating, the cells were treated with 1 μM 4A22 and NGF (100 ng/ml) for 12 h prior to harvest and lysis in lysis buffer (50 mM Tris/HCl pH 7.5, 1 mM EDTA, 270 mM Sucrose, 1% (v/v) Triton X-100, 0.1% (v/v) 2-mercaptoethanol and 60 mM n-Octyl-β-D glucopyranoside) containing protease inhibitor cocktail. The cellular extracts were then centrifuged at 4 °C top speed on a benchtop centrifuge for 1 min and the supernatant was collected. For immunoprecipitation, A875 cell extracts were incubated for 16 h at 4 °C on a rotating wheel with 0.8 μg of anti-p75^NTR antibody (ANT-007, Alomone) and then incubated with Sepharose protein-G beads (GE Healthcare). The beads were collected by brief centrifugation (2 min, 2500 rpm, 4 °C), washed three times with 1 ml of Wash Buffer (with composition same as the lysis buffer). After the last wash, pelleted beads were aspirated off the wash buffer followed by addition of Laemmli sample buffer and analysis by SDS–PAGE followed by Western Blot using anti-fascin antibody (MA5-11483, Invitrogen).

WM115 cells = assay: Boyden chamber chemotaxis assay, WM115; type: cell-based, human; settings: 100 ng/ml NGF
Method: For Boyden chamber assay, Corning® BioCoat™ Matrigel® Invasion Chambers 8.0 µm PET Membrane were used (cat. no. 354480). A875 NT or WM115 cells were serum-starved for 16 h and then seeded at 60,000 cells per well in serum-free media under different conditions, including DMSO (vehicle) or small molecules Div17E5 or Np75-4A22 at different concentrations to the top chamber of the Matrigel-coated trans-well chamber. The pan-caspase inhibitor Q_VD_poH (at 5 µM) was also introduced in the top chamber in some experiments. Two different chemoattractants, NGF (at 50 ng/ml or 100 ng/ml as indicated) or 10% FBS were added to the bottom chamber. Assays were carried out for 8 h after which filters were fixed in 4% PFA and stained with DAPI. Cells that had remained on the top of the filter were gently scrapped away with a cotton tip. The filter lower side was imaged on an inverted fluorescence microscope and counted using ImageJ software (NIH).

A875 NT cells [3] = assay: Filopodia per cell (phalloidin staining), A875 NT; type: cell-based, human
Method: (§1) For assessment of actin filaments, A875 cells were plated on glass coverslips in 24-well plate at a confluency of 3 × 10^4 cells/well. One day after plating, the cells were treated with 1 μM or 5 μM Np75-4A22 and NGF (100 ng/ml) or PBS for 24 h. Cells were fixed in 4% paraformaldehyde, permeabilized in 0.1% Triton-X-100, stained with Phalloidin-iFluor 488 (Abcam) at 1:2000 dilution and DAPI for 1 h. Coverslips were mounted and visualized in a laser confocal microscope.

[4] = test system: fascin in Triton-insoluble fraction of A875 NT cells; assay: Detergent-insolubility assay of fascin, A875 NT; type: cell-based, human; settings: NGF; insoluble/total fascin, n1-n3
Method: A single cell suspension was obtained by trypsinization followed by centrifugation and detergent extraction with lysis buffer (with 0.5% Triton X-100). Then, immediately centrifuged at 8700 g for 3 min. The resulting pellets (containing the Triton X-100-resistant proteins) were suspended in lysis buffer without Triton X-100. In parallel, cells were centrifuged and then directly suspended in lysis buffer. The Triton X-100- resistant proteins and total cell lysates were analyzed by SDS–PAGE and Western blotting with anti-fascin antibody.

A875 shp75 cells [5] = assay: Boyden chamber chemotaxis assay, A875 shp75; type: cell-based, human; settings: NGF as chemoattractant
A875 shp75 cells [6] = assay: Filopodia per cell (phalloidin staining), A875 shp75; type: cell-based, human; settings: for filopodia per cell (well mean): A875 shp75 cells, wells 1-4
Method: as §1

melanoma tumor = test system: melanoma tumor; set-up: method as in Goh et al, 2018; settings: ref Goh et al, 2018; cited from earlier work
[7] = test system: neurons and melanoma cells; set-up: method as in Goh et al, 2018; settings: dependent on p75NTR and JNK activity; ref Goh et al, 2018; cited from earlier work
p75^NTR TMD = molecular target: T2, p75^NTR TMD (Homo sapiens, UniProt P08138); assay: AraTM assay, wild-type p75NTR TMD (GFP/OD630); type: cell-based; settings: structure-activity comparison
T2 sequence (P08138 250-275 limits assumed): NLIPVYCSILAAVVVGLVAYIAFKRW

Compound	bacterial toxicity, as assessed by OD630 (AS19 E. coli)	wound healing assay, comparison of Div17E5, MS_18 and MS_63 (A875 NT cells [1])	Wound area (Fold), Mean (A875 NT cells [1]; 0 hours) [Fold]	Wound area (Fold), individual replicates (A875 NT cells [1]; 0 hours) [Fold]	Wound area (Fold), Mean (A875 NT cells [1]; 3 hours) [Fold]	Wound area (Fold), individual replicates (A875 NT cells [1]; 3 hours)	Wound area (Fold), Mean (A875 NT cells [1]; 6 hours) [Fold]	Wound area (Fold), individual replicates (A875 NT cells [1]; 6 hours)	Wound area (Fold), Mean (A875 NT cells [1]; 9 hours) [Fold]	Wound area (Fold), individual replicates (A875 NT cells [1]; 9 hours)	Wound area (Fold), Mean (A875 NT cells [1]; 12 hours) [Fold]	Wound area (Fold), individual replicates (A875 NT cells [1]; 12 hours)	Wound area (Fold), Mean (A875 NT cells [1]; 15 hours) [Fold]	Wound area (Fold), individual replicates (A875 NT cells [1]; 15 hours)	Wound area (Fold), Mean (A875 NT cells [1]; 18 hours) [Fold]	Wound area (Fold), individual replicates (A875 NT cells [1]; 18 hours)	Wound area (Fold), Mean (A875 NT cells [1]; 21 hours) [Fold]	Wound area (Fold), individual replicates (A875 NT cells [1]; 21 hours)	Wound area (Fold), Mean (A875 NT cells [1]; 24 hours) [Fold]	Wound area (Fold), individual replicates (A875 NT cells [1]; 24 hours)	other results
CN(C)c1cccc(-c2cncc(Nc3ccc(Br)c(Cl)c3Cl)n2)c1 [MS_63]	somewhat lower bacterial toxicity	lower potency	1	1.000	0.912	0.916 Fold and 0.908 Fold	0.874	0.869 Fold and 0.879 Fold	0.827	0.786 Fold and 0.869 Fold	0.792	0.755 Fold and 0.828 Fold	0.762	0.728 Fold and 0.796 Fold	0.73	0.704 Fold and 0.756 Fold	0.71	0.683 Fold and 0.737 Fold	0.697	0.666 Fold and 0.729 Fold	–
NGF: nerve growth factor, neurotrophin ligand of p75NTR, used as chemoattractant	–	–	–	–	–	–	–	–	–	–	–	–	–	–	–	–	–	–	–	–	FASCIN/P75 [2]: 0.1943 and 0.2161 and 0.2851; FASCIN/P75 Fold change ([2]; relative to UT): 1.97 and 2.116 and 1.36; values normalized to vehicle, mean (Figure 6E) (WM115 cells; mean of EXP1-3): 1.5693; values normalized to vehicle (Figure 6E) (WM115 cells; single experiments EXP1-3): 1.456 and 1.588 and 1.664; Filopodia per cell, mean of experiment (A875 NT cells [3]; 100 ng/ml NGF alone, A875 NT, EXP1-EXP3): 50.0863 and 44.7441 and 46.2718; Filopodia per cell, mean of three experiments (A875 NT cells [3]; 100 ng/ml NGF alone, A875 NT, mean of EXP1-3): 47.0341; Filopodia per cell, mean of well (A875 NT cells [3]; 100 ng/ml NGF alone, A875 NT, well mean): 36.2857 and 52.7857 and 51.5714 and 47.2222 and 38.6667 and 55.1429 and 44.0556; Filopodia per cell, mean of the well (A875 NT cells [3]; 100 ng/ml NGF, EXP1 NT, well mean): 59.8571 and 51.381 and 46.8571 and 42.25; Fold change (compared to untreated cells) [4]: 3.421 and 2.292 and 2.425; Fold change (invading cells), n1-n4 (A875 shp75 cells [5]): 0.89 Fold and 1.06 Fold and 1.42 Fold and 1.05 Fold; Fold change (invading cells), Mean (A875 shp75 cells [5]; N=4): 1.110 Fold; filopodia per cell (mean of 3 experiments) (A875 shp75 cells [6]; A875 shp75, 100ng/ml NGF): 33.6544; filopodia per cell (mean of one experiment) (A875 shp75 cells [6]; A875 shp75, 100ng/ml NGF, EXP1-EXP3): 32.2411 and 36.1597 and 32.5625; filopodia per cell (well mean) (A875 shp75 cells [6]; EXP1, 100 ng/ml NGF): 25.2143 and 35.5 and 37.1667 and 31.0833; filopodia per cell (well mean) (A875 shp75 cells [6]; EXP2, 100 ng/ml NGF): 37 and 30.3889 and 32.6667 and 44.5833
O=C(/C=C/c1cccnc1)c1ccccc1O [NSC49652]	–	–	–	–	–	–	–	–	–	–	–	–	–	–	–	–	–	–	–	–	melanoma tumor growth (melanoma tumor): inhibited melanoma tumor growth; apoptotic cell death [7]: triggered apoptotic cell death
COc1ccc(-c2cncc(Nc3ccc([N+](=O)[O-])cc3)n2)cc1 [MS_18]	somewhat lower bacterial toxicity	lower potency	1	1.000	0.941	0.922 Fold and 0.959 Fold	0.91	0.89 Fold and 0.929 Fold	0.867	0.834 Fold and 0.901 Fold	0.851	0.803 Fold and 0.899 Fold	0.791	0.728 Fold and 0.855 Fold	0.817	0.79 Fold and 0.845 Fold	0.775	0.722 Fold and 0.827 Fold	0.737	0.692 Fold and 0.783 Fold	activity in the AraTM assay (p75^NTR TMD): MS_18 more potent than Np75-3A01, -3A02
